This is an account of results in patent US20130177904A1, “ARNT ISOFORM 3 AS A PREDICTOR OF AMINOFLAVONE RESPONSIVENESS IN CANCER CELLS” (UNIVERSITY OF MARYLAND, BALTIMORE, priority 2010, published 2013).

The structures appear in SMILES notation. pIC50: −log10 of the molar value.

Common to all, as to experiment: MTS cell proliferation assay
Common to all, as to assay type: cell-based

One assay concerns MDA-MB-468. To be noted: Homo sapiens, 120 h; MDA-MB-468 (ER−), 5 days after treatment, estimated from graph FIG. 1; read-out: IC50 (50% Inhibitory Concentration). The procedure: (§1) The CellTiter 96 Aqueous MTS Reagent (Promega, Cat. G5421 WI) was employed to measure the effects of AF on cell proliferation. Briefly, cells in 100 μl were seeded in 96-well plates (Nunc) at a density of 2,000 cells/well and allowed to attach overnight. AF was added the following day in final concentrations of 0.1 nM to 100 μM in replicas of 8. Proliferation was measured 5 days later by adding 20 μl MTS reagent to the plates and incubation at 37° C. for 2 hours. Viable cells converted the MTS reagent to a formazan product, which was measured 4 hours later at 490 nm using a Synergy HT Multi-Detection Microplate Reader, and KC4 software (Bio-Tek). Cell proliferation was compared to DMSO treated controls as a percentage, against the background growth at the time of AF treatment.
(§2) For IC50 (50% Inhibiting Concentration) determination, vehicle treated cells were deemed as 100% cell growth. Percent growth inhibition was calculated by dividing AF treated MTS values by MTS values of vehicle treated cells, subtracting background (media alone without cells) from both prior to calculations. […] The data as calculated is more representative of percent cell survival and therefore defined as Inhibitory Concentrations (IC50) rather than GI50 values. That said, they provide for a highly accurate means for comparing effects of AF. IC50 values were estimated directly from the graph (FIG. 1), though model fitting employing BiodataFit 1.02 (Chang Biosciences, found on the world wide web at changbioscience.com/stat/ec50ht.html) provided for highly similar results with model fitting correlations of 0.85 or above and generally small SEE values (standard error of the IC50 estimate).

The subject of a further assay is MDA-MB-231. To be noted: Homo sapiens, 120 h; MDA-MB-231 (ER−), 5 days after treatment, estimated from graph FIG. 1; read-out: IC50 (50% Inhibitory Concentration). On the procedure: as §1, §2
A further assay concerns MCF7. Particulars: Homo sapiens, 120 h; MCF7 (ER+), 5 days after treatment, estimated from graph FIG. 1; read-out: IC50 (50% Inhibitory Concentration). On the procedure:
as §1, §2

Another assay deals with T47D. Particulars: Homo sapiens, 120 h; T47D (ER+), 5 days after treatment, estimated from graph FIG. 1; read-out: IC50 (50% Inhibitory Concentration). On the procedure: as §1, §2
The test system of another assay is Hs578t. Particulars: Homo sapiens, Hs-578T, 120 h; Hs578t (ER−), 5 days after treatment, estimated from graph FIG. 1; read-out: IC50 (50% Inhibitory Concentration). On the procedure:
as §1, §2

For the compound `Cc1c(F)c(N)c2c(=O)cc(-c3ccc(N)c(F)c3)oc2c1F` [AF, 5-amino-2-(4-amino-3-fluorophenyl)-6,8-difluoro-7-methylchromen-4-one], the pIC50 is 8.40 in the assay on MDA-MB-468; 4.15 in the assay with MDA-MB-231; 7.15 in the assay with MCF7; 6.96 in the assay on T47D; 4.70 with Hs578t.
